From ChEMBL document CHEMBL2073796, “Multidrug resistance protein 2 (MRP2) transports HIV protease inhibitors, and transport can be enhanced by other drugs” (AIDS, 2002)

Molecular target: ATP-binding cassette sub-family C member 2 (Homo sapiens, UniProt Q92887)
Test: TP_TRANSPORTER: transepithelial transport (basal to apical) in MRP2-expressing MDCKII cells
Assay type: functional, cell-based
Settings: dog, mdck-ii

Sequence of ATP-binding cassette sub-family C member 2 (Q92887 whole entry): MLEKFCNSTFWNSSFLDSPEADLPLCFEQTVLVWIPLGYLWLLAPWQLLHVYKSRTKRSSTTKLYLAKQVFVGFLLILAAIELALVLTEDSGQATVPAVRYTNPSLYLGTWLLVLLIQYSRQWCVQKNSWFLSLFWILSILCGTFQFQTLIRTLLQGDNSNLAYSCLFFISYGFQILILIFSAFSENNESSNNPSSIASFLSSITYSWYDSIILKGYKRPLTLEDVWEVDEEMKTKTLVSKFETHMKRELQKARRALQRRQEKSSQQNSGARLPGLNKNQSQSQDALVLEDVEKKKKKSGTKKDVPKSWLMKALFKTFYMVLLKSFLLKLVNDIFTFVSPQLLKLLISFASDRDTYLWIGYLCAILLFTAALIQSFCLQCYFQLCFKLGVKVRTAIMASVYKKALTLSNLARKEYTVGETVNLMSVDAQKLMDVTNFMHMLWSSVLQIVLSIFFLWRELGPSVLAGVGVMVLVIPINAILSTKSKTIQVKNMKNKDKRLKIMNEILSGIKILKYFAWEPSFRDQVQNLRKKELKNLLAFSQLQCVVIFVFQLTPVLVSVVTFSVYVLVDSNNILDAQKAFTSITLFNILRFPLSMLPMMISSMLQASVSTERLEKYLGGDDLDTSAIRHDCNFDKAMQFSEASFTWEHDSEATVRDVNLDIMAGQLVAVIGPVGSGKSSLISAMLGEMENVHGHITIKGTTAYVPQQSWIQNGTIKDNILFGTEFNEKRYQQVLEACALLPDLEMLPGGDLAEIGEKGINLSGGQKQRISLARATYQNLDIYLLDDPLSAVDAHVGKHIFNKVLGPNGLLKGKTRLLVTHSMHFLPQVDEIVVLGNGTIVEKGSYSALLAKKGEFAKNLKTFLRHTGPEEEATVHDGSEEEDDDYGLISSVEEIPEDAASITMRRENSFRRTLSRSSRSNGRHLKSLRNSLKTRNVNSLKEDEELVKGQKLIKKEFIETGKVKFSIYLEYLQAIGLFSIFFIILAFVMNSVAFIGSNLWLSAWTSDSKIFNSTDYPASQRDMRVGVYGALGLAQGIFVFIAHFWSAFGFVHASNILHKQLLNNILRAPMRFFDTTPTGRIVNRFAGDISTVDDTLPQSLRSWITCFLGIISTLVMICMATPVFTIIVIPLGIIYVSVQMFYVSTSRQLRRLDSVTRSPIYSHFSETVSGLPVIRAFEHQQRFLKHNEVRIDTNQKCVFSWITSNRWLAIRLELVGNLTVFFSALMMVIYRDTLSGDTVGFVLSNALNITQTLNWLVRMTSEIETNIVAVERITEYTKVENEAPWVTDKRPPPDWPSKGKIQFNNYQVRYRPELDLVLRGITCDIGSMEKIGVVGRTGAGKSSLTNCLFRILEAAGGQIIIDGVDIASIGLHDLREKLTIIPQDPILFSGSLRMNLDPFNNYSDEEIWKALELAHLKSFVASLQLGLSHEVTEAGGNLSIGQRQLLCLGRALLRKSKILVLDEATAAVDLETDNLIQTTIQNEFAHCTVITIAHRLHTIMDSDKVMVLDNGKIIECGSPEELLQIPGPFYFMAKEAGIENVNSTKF

CC(C)(C)NC(=O)[C@@H]1CN(Cc2cccnc2)CCN1C[C@@H](O)C[C@@H](Cc1ccccc1)C(=O)N[C@H]1c2ccccc2C[C@H]1O.O
Activity: substrate [+]
